Experiment [1] concerns synovial sarcoma cell lines (SYO1, HS-SY-II, and ASKA). Put plainly: Growth of synovial sarcoma cell lines, daily treatment, crystal violet at day 14. The format is cell-based, human. Conditions: treated daily, day 14 (FIG. 8). The procedure: (§1) Procedure: Cells were seeded into 6-well or 12-well plates and were treated daily with a BRD9 degrader (Compound 1), a bromo-domain BRD9 binder (Compound 2), E3 ligase binder (lenalidomide), DMSO, or staurosporin (positive control for cell killing), at indicated concentrations. The number of cells was optimized for each cell line. Growth media was refreshed every 5 days. By day 14, medium was removed, cells were washed with PBS, and stained using 500 μL of 0.005% (w/v) crystal violet solution in 25% (v/v) methanol for at least 1 hour at room temperature.

Experiment [2] has as its system non-synovial control cancer cell lines (293T, A549, G401). Put plainly: Growth of non-synovial control cancer cell lines (crystal violet staining, colony imaging). The experiment is classed as cell-based, human. The note with it: 1 μM or indicated doses (FIGS. 5-7). The procedure:
(§2) Cells were treated with DMSO or the BRD9 degrader, Compound 1, at indicated concentrations, and proliferation was monitored from day 7 to day 14 by measuring confluency over time using an IncuCyte live cell analysis system (FIG. 5). Growth medium and compounds were refreshed every 3-4 days.
(§3) Cells were seeded into 12-well plates and treated with DMSO, 1 μM BRD9 inhibitor, Compound 2 (also known as BI-7273, see Martin et al, J Med Chem. 59(10):4462-4475 (2016); see structure of compound 2 below), or 1 μM BRD9 degrader, Compound 1.
(§4) The number of cells was optimized for each cell line. Growth medium and compounds were refreshed every 3-5 days. SYO1, Yamato, A549, 293T and HS-SY-II cells were fixed and stained at day 11. ASKA cells were fixed and stained at day 23. Staining was done by incubation with crystal violet solution (0.5 g Crystal Violet, 27 ml 37% Formaldehyde, 100 mL 10×PBS, 10 mL Methanol, 863 dH2O to 1 L) for 30 minutes followed by 3× washes with water and drying the plates for at least 24h at room temperature. Subsequently plates were scanned on an Odyssey CLx Imaging system (FIG. 6).
(§5) Cells were seeded into 96-well ultra low cluster plate (Costar, #7007) in 200 μL complete media and treated at day 2 with DMSO, Staurosporin, or BRD9 degrader, Compound 1, at indicated doses (FIG. 7).

For experiment [3], the system named is non-synovial control cancer cell lines (RD, HCT116, and Calu6). Put plainly: Growth of non-synovial control cancer cell lines, daily treatment, crystal violet at day 14. Conditions: treated daily, day 14 (FIG. 9). The experiment is classed as cell-based, human. The procedure: as §1
Experiment [4] relates to synovial sarcoma cell lines (SYO1, Yamato, HS-SY-II, and ASKA). Nature of the experiment: Growth of synovial sarcoma cell lines (IncuCyte confluency, crystal violet staining, colony imaging). The format is cell-based, human. The note with it: 1 μM or indicated concentrations (FIGS. 5-7). The procedure:
as §2, §3, §4, §5

In experiment [5] the test system is SYO1 cells. Nature of the experiment: Apoptosis assay (Annexin V-FITC) in SYO1 cells. The experiment is classed as cell-based, human. The note with it: SYO1, 200 nM or 1 μM, 8 days, compared to DMSO controls. The procedure:
(§6) Procedure: SYO1 cells were treated for 8 or 13 days with DMSO, a BRD9 degrader (Compound 1) at 200 nM or 1 μM, or an E3 ligase binder (lenalidomide) at 200 nM. Compounds were refreshed every 5 days. Cell cycle analysis was performed using the Click-iT™ Plus EdU Flow Cytometry Assay (Invitrogen). The apoptosis assay was performed using the Annexin V-FITC Apoptosis Detection Kit (Sigma A9210).

For experiment [6], the system named is SYO1 cells. Nature of the experiment: Cell cycle analysis (Click-iT Plus EdU flow cytometry) in SYO1 cells. The experiment is classed as cell-based, human. Conditions: SYO1, 200 nM or 1 μM, 8 or 13 days, compared to DMSO and lenalidomide. The procedure: as §6
For orientation: Flow cytometry measures light scatter and fluorescence of single cells or particles in a stream.

Experiment [7] has as its target T1, Nanoluciferase-BRD9 fusion protein (3×FLAG-NLuc-BRD9) in SYO-1 cells (Homo sapiens, UniProt Q9H8M2).
T1 construct: expressed in transfected cells; host or cells: SYO-1
T1 sequence (Q9H8M2 1-597): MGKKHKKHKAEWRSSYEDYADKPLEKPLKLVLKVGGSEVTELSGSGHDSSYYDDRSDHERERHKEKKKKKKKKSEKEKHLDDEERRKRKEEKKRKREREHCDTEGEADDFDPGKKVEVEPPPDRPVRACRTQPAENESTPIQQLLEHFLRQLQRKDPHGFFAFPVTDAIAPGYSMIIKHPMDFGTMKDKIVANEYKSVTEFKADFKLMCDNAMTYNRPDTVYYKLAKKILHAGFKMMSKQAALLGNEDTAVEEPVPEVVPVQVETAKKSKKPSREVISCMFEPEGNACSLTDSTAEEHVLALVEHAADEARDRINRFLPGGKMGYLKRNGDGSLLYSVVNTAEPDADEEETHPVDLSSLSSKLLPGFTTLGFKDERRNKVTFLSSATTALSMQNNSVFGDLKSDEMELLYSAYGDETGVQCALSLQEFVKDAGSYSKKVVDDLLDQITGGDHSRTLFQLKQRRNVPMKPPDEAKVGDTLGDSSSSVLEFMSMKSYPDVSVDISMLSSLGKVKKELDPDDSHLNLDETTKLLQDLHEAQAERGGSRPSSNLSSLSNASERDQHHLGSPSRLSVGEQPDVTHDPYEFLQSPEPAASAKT
Put plainly: SYO1 BRD9 NanoLuc degradation assay. Conditions: 6 hours treatment, 1 μM top dose; read-out: SYO1 BRD9-NanoLuc degradation IC50. The experiment is classed as cell-based. Put shortly:
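Stable SYO-1 line expressing 3×FLAG-NLuc-BRD9 was seeded at 8000 cells/well, then treated next day for 6 h with 10-point 3-fold dilutions (top 1 μM final). Nano-Glo luminescence was read. % inhibition was normalised to DMSO (high control) and 1 μM reference BRD9 degrader (low control).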

In experiment [8] the target is T2, BRD9 bromodomain (Flag-BRD9 P133-K239; Swiss Prot Q9H8M2) (Homo sapiens, UniProt Q9H8M2).
T2 construct: His-Flag-BRD9 (P133-K239); Swiss Prot Q9H8M2; His6 with TEV site (mgsshhhhhhenlyfq/) (N, cleaved yes); made in house
T2 sequence (Q9H8M2 133-239): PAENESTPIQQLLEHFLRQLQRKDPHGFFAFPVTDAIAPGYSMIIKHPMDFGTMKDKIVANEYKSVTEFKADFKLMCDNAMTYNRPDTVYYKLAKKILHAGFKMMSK
Nature of the experiment: BRD9 bromodomain TR-FRET competition binding assay. The note with it: 3 nM Flag-BRD9, 3.75 nM biotinylated ligand, 90 minutes at room temperature. Here is the method:
Cleaved His tag was removed by purification. […] DMSO or 3-fold serially diluted compounds were then added to the Proxiplate followed by addition of Flag-BRD9. After a 10-minute incubation at room temperature, Eu-W1024 anti-FLAG (PerkinElmer, AD0273) was added.
A general note: In TR-FRET formats the signal depends on donor and acceptor labels being close together.

SMILES strings stand for the structures. “Also recorded” adds a separate entry of the source. Some results are limits rather than exact numbers.

For `COc1cc(-c2cn(C)c(=O)c3cnccc23)cc(OC)c1CN(C)C` [Compound 2], the “inhibition of cell growth” value in experiment [1] is “inhibition of the growth of the cells”; in experiment [2] it was “does not result in inhibition of the growth”; in experiment [3] it was “did not result in inhibition of the growth”; in experiment [4] it was “inhibition of the growth of the cells”.

As for `COc1cc(-c2cn(C)c(=O)c3cnccc23)cc(OC)c1CN(C)CC(=O)NCCOCCOCCNc1cccc2c1C(=O)N(C1CCC(=O)NC1=O)C2=O` (centres unmarked) [Compound 1], in the experiment on SYO1 cells [5], the “early- and late-apoptotic cells” value was “increased numbers of early- and late-apoptotic cells”. Further, the “inhibition of cell growth” value is given as “inhibition of the growth of the cells; also recorded: most significant growth inhibition” in experiment [1], “does not result in inhibition of the growth” in experiment [2], “did not result in inhibition of the growth” in experiment [3] and “inhibition of the growth of the cells” in experiment [4]. In the experiment on SYO1 cells [6], the “cells in the S-phase of the cell cycle” value is “reduced numbers of cells in the S-phase”.

In general, IC50 refers to the concentration that inhibits the measured activity by half. Read a low IC50 as higher potency. With `Cn1cc(-c2ccc(OCC(=O)NCCCCCCCCNc3cccc4c3C(=O)N(C3CCC(=O)NC3=O)C4=O)c(C(F)(F)F)c2)c2sc(C(=N)NC3CCS(=O)(=O)CC3)cc2c1=O` (centres unmarked) [Compound D3, 2-(4-[2-[N-(1,1-dioxo-1λ6-thian-4-yl)carbamimidoyl]-5-methyl-4-oxo-4H,5H-thieno[3,2-c]pyridin-7-yl]-2-(trifluoromethyl)phenoxy)-N-(8-[[2-(2,6-dioxopiperidin-3-yl)-1,3-dioxo-2,3-dihydro-1H-isoindol-4-yl]amino]octyl)acetamide], the DC50 in experiment [7] was less than 10 nM. The same compound yielded a 50% inhibitory concentration (IC50) in experiment [8] of more than 10 nM.

With `COc1cc(-c2cn(C)c(=O)c3cc(C(=O)NC4CCN(CCCCCOc5cccc6c5C(=O)N(C5CCC(=O)NC5=O)C6=O)CC4(F)F)sc23)cc(OC)c1CN(C)C` (centres unmarked) [Compound D13, 7-[4-[(dimethylamino)methyl]-3,5-dimethoxyphenyl]-N-[1-(5-[[2-(2,6-dioxopiperidin-3-yl)-1,3-dioxoisoindol-4-yl]oxy]pentyl)-3,3-difluoropiperidin-4-yl]-5-methyl-4-oxothieno[3,2-c]pyridine-2-carboxamide], the DC50 in experiment [7] is less than 10 nM. Further, the IC50 in experiment [8] is less than 10 nM.

The record behind these values is patent publication US12686687B2, “Compounds and uses thereof” (Foghorn Therapeutics Inc., priority 2019, dated 2026).
